# Data published in US20210283107A1, “Methods to Expand the Spectrum of Gram-Positive Antibiotics” (NORTH CAROLINA STATE UNIVERSITY, priority 2016, published 2021).
# “And” between values parts separate entries of the source, which are not always exact repeats. Equal entries are not always repeated.
# What was measured:
# [1] = system: A. baumannii strain 5075 (AB5075); assay: Macrolide sensitization / antibiotic resensitization: antibiotic MIC in presence of compound (broth microdilution); assay type: cell-based, Acinetobacter baumannii; conditions: for MIC: Acinetobacter baumannii; for potentiation of vancomycin: compound at 10 μM; for reduction in vancomycin MIC (fold): compound at 20 μM; for Josamycin MIC / Oleandomycin MIC / Spiramycin MIC / Troleandomycin MIC: in presence of compound (concentration not given in Table 7); for Amikacin MIC / Gentamicin MIC / Kanamycin MIC / Neomycin MIC / Streptomycin MIC / Tobramycin MIC: in presence of compound (concentration not given in Table 12); for Fold reduction of josamycin MIC: in the presence of compound (concentration not given)
# In short: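 Antibiotic MICs were set by broth microdilution in CAMHB (AB5075, 5×10^5 CFU/mL), with compound held constant in every well. Growth was scored visually after 16-18 h at 37° C. Fold-reduction compares compound-treated MIC with the antibiotic-only control.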
# [2] = system: A. baumannii strain 5075 (AB5075); assay: Broth microdilution MIC determination of compound alone; assay type: cell-based; conditions: Acinetobacter baumannii
# In short: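 MIC by twofold serial dilution in cation-adjusted Mueller-Hinton broth, inoculum 5×10^5 CFU/mL from 6 h day cultures, top concentration 200 μM (64 μg/mL). Incubated stationary at 37° C. for 16 hours; MIC taken as lowest concentration with no visible growth.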
# [3] = system: A. baumannii mutant AB522; assay: MIC against Tn-seq transposon mutant AB522; assay type: cell-based; conditions: Acinetobacter baumannii
# Procedure: During individual MIC screening, two mutants, AB522 and AB1310, were identified due to their increased sensitivity to the three macrolide antibiotics and vancomycin when compared to AB 5075 (Table 17).
# Day Cultures (6 h) were subcultured to 5×10^5 CFU/mL in cation adjusted Mueller-Hinton broth (CAMHB). Aliquots (1 mL) were placed in culture tubes, and compound was added from 100 mM stock solutions, such that the compound concentration equaled the highest concentration tested (200 μM or 64 μg/mL). Samples were then aliquoted (200 μL) into the first row of wells of a 96-well plate, with all remaining wells being filled with 100 μL of initial bacterial subculture. The wells in row one were mixed five times before 100 μL was transferred to the following row (row two). Row two was then mixed five times, and 100 μL was transferred to row three. This processed was repeated until the final row had been mixed. This process provided a serial dilution of the compound. Plates were covered with Glad Press n'Seal and were incubated under stationary conditions at 37° C. for 16 hours. MIC values were recorded as the lowest concentration at which no bacterial growth was observed.
# [4] = system: A. baumannii mutant AB1310; assay: Dose dependent resistance suppression (antibiotic MIC with compound) in AB1310; assay type: cell-based, Acinetobacter baumannii
# Procedure: There was no notable reduction in antibiotic MIC observed with either compound and both strains 522 and 1310. […] Even at the highest concentration, no potentiation was observed.
# Day Cultures (6 h) were subcultured to 5×10^5 CFU/mL in cation adjusted Mueller-Hinton broth (CAMHB). […] One milliliter of the resulting solution was aliquoted into a separate culture tube and was dosed with antibiotic so that the resulting concentration was the highest desirable concentration to be tested. Bacteria treated with antibiotic alone were used as a control. Row one of a 96-well plate was filled with 200 μL of the antibiotic/compound solution, and the remaining rows were filled with 100 μL of the remaining 4 mL bacterial subculture. The wells in row one were mixed five times before 100 μL was transferred to the following row (row two). Row two was then mixed five times, and 100 μL was transferred to row three. This process was repeated until the second to last row had been reached. The last row is left unexposed to antibiotic in order to serve as a negative control. The antibiotic only treated bacteria was plated by aliquoting 200 μL of the treated bacteria into row one and filling the remaining rows with untreated bacteria from the original bacteria subculture. The rows were mixed in the same way as described above. Plates were covered with Glad Press n'Seal and were incubated under stationary conditions at 37° C. for 16 hours. MIC values were recorded as the lowest concentration at which no bacterial growth was observed. Fold reductions were determined by comparison of the compound treated wells with the antibiotic only treated control wells.
# AB 5075 = assay: Backlight assay for membrane permeability; assay type: cell-based, Acinetobacter baumannii; conditions: AB5075
# Procedure: The assay was initially performed at 10, 20 and 30 μM with compounds 1 and 4 (Table 16). […] When the concentration is lowered to 20 μM, the percent of membrane disrupted also decreases to 78% and 83% respectively. When further decreasing the concentration to 10 μM, the membrane disruption decreases to 39 and 44% respectively. Due to the similar structure and lack of potentiation activity, compound 25 was screened at 10, 20 and 30 μM to compare membrane permeability with that of active compounds. The percent disruption was less than seen with compounds 1 and 4 being 53, 54 and 60% respectively.
# [5] = compound at 10 μM vs colistin alone, AB5075
# [6] = compound at 30 μM vs antibiotic alone, AB5075
# [7] = in presence of compound at 4 μM, AB5075
# [8] = in presence of compound at 5 μM, AB5075
# [9] = in presence of compound at 10 μM, AB5075
# [10] = in presence of compound at 15 μM, AB5075
# [11] = in presence of compound at 20 μM, AB5075
# [12] = in presence of compound at 30 μM, AB5075
smiles,measurement,setting,value
Nc1nc(-c2ccc(NC(=O)c3cc(Cl)cc(Cl)c3)cc2)c[nH]1 [Compound 1],MIC,[1]; read-out: Daptomycm MIC (μg/mL),16 µg/mL
same,Fold Increase (colistin MIC),[1]; [5],8 fold
same,potentiation of vancomycin,[1]; AB5075,no potentiation activity observed
same,reduction in vancomycin MIC (fold),[1]; AB5075,32 fold
same,Fold Reduction (daptomycin MIC),[1]; [6],128 fold
same,Fold Reduction (vancomycin MIC),[1]; [6],256 fold
same,Fold Increase (colistin MIC),"[1]; compound at 30 μM vs colistin alone, AB5075",32 fold
same,Josamycin MIC,[1]; AB5075,8 µg/mL
same,Oleandomycin MIC,[1]; AB5075,64 µg/mL
same,Spiramycin MIC,[1]; AB5075,128 µg/mL
same,Troleandomycin MIC,[1]; AB5075,32 µg/mL
same,Amikacin MIC,[1]; AB5075,128 µg/mL
same,Gentamicin MIC,[1]; AB5075,>512 µg/mL
same,Kanamycin MIC,[1]; AB5075,>512 µg/mL
same,Neomycin MIC,[1]; AB5075,16 µg/mL
same,Streptomycin MIC,[1]; AB5075,256 µg/mL
same,Tobramycin MIC,[1]; AB5075,64 µg/mL
same,Azithromycin MIC,[1]; [7],32 µg/mL
same,Vancomycin MIC,[1]; [7],256 µg/mL
same,Azithromycin MIC,[1]; [8],32 µg/mL
same,Vancomycin MIC,[1]; [8],256 µg/mL
same,Azithromycin MIC,[1]; [9],16 µg/mL
same,Vancomycin MIC,[1]; [9],256 µg/mL
same,Azithromycin MIC,[1]; [10],16 µg/mL
same,Vancomycin MIC,[1]; [10],64 µg/mL
same,Azithromycin MIC,[1]; [11],16 µg/mL
same,Vancomycin MIC,[1]; [11],8 µg/mL
same,Azithromycin MIC,[1]; [12],8 µg/mL
same,Colistin MIC,[1]; [12],16 µg/mL
same,Linezolid MIC,[1]; [12],128 µg/mL
same,Vancomycin MIC,[1]; [12],1 µg/mL
same,Fold reduction of josamycin MIC,[1]; AB5075,16 fold
same,MIC,[2],100 µM
same,MIC,[3],12.5 µM
same,Azithromycin MIC,[4]; compound Conc. Tested 2 (μM),4 µg/mL
same,Clarithromycin MIC,[4]; compound Conc. Tested 2 (μM),1 µg/mL
same,Erythromycin MIC,[4]; compound Conc. Tested 2 (μM),4 µg/mL
same,Vancomycin MIC,[4]; compound Conc. Tested 2 (μM),64 µg/mL
same,Azithromycin MIC,[4]; compound Conc. Tested 3 (μM),4 µg/mL
same,Clarithromycin MIC,[4]; compound Conc. Tested 3 (μM),1 µg/mL
same,Erythromycin MIC,[4]; compound Conc. Tested 3 (μM),2 µg/mL
same,Vancomycin MIC,[4]; compound Conc. Tested 3 (μM),64 µg/mL
same,Azithromycin MIC,[4]; compound Conc. Tested 4 (μM),4 µg/mL
same,Clarithromycin MIC,[4]; compound Conc. Tested 4 (μM),0.5 µg/mL
same,Erythromycin MIC,[4]; compound Conc. Tested 4 (μM),4 µg/mL
same,Vancomycin MIC,[4]; compound Conc. Tested 4 (μM),64 µg/mL
same,Azithromycin MIC,[4]; compound Conc. Tested 5 (μM),4 µg/mL
same,Clarithromycin MIC,[4]; compound Conc. Tested 5 (μM),0.5 µg/mL
same,Erythromycin MIC,[4]; compound Conc. Tested 5 (μM),2 µg/mL
same,Vancomycin MIC,[4]; compound Conc. Tested 5 (μM),32 µg/mL
same,Disrupted bacterial membrane (%),AB 5075; compound at 10 μM,39% and 38.8%
same,Disrupted bacterial membrane (%),AB 5075; compound at 20 μM,78%
Nc1nc(-c2ccc(NC(=O)c3cc(Br)cc(Br)c3)cc2)c[nH]1 [Compound 4],MIC,"[1]; in presence of compound at 30 μM, AB5075, read-out: Daptomycm MIC",64 µg/mL
same,Fold Increase (colistin MIC),[1]; [5],0 fold
same,potentiation of vancomycin,[1]; AB5075,no potentiation activity observed
same,reduction in vancomycin MIC (fold),[1]; AB5075,64 fold
same,Fold Reduction (daptomycin MIC),[1]; [6],32 fold
same,Fold Reduction (vancomycin MIC),[1]; [6],256 fold
same,Fold reduction (clarithromycin MIC),[1]; [6],128 fold
same,Josamycin MIC,[1]; AB5075,4 µg/mL
same,Oleandomycin MIC,[1]; AB5075,128 µg/mL
same,Spiramycin MIC,[1]; AB5075,64 µg/mL
same,Troleandomycin MIC,[1]; AB5075,16 µg/mL
same,Amikacin MIC,[1]; AB5075,128 µg/mL
same,Gentamicin MIC,[1]; AB5075,>512 µg/mL
same,Kanamycin MIC,[1]; AB5075,>512 µg/mL
same,Neomycin MIC,[1]; AB5075,64 µg/mL
same,Streptomycin MIC,[1]; AB5075,512 µg/mL
same,Tobramycin MIC,[1]; AB5075,64 µg/mL
same,Azithromycin MIC,[1]; [7],64 µg/mL
same,Vancomycin MIC,[1]; [7],128 µg/mL
same,Azithromycin MIC,[1]; [8],64 µg/mL
same,Vancomycin MIC,[1]; [8],256 µg/mL
same,Azithromycin MIC,[1]; [9],32 µg/mL
same,Colistin MIC,[1]; [9],0.5 µg/mL
same,Vancomycin MIC,[1]; [9],128 µg/mL
same,Azithromycin MIC,[1]; [10],8 µg/mL
same,Vancomycin MIC,[1]; [10],32 µg/mL
same,Azithromycin MIC,[1]; [11],16 µg/mL
same,Vancomycin MIC,[1]; [11],4 µg/mL
same,Azithromycin MIC,[1]; [12],8 µg/mL
same,Colistin MIC,[1]; [12],4 µg/mL
same,Linezolid MIC,[1]; [12],256 µg/mL
same,Vancomycin MIC,[1]; [12],1 µg/mL
same,Fold reduction of josamycin MIC,[1]; AB5075,32 fold
same,MIC,"[2]; compound alone, AB5075, read-out: MIC",100 µM
same,MIC,[3],12.5 µM
same,Azithromycin MIC,[4]; compound Conc. Tested 2 (μM),4 µg/mL
same,Clarithromycin MIC,[4]; compound Conc. Tested 2 (μM),2 µg/mL
same,Erythromycin MIC,[4]; compound Conc. Tested 2 (μM),4 µg/mL
same,Vancomycin MIC,[4]; compound Conc. Tested 2 (μM),64 µg/mL
same,Azithromycin MIC,[4]; compound Conc. Tested 3 (μM),4 µg/mL
same,Clarithromycin MIC,[4]; compound Conc. Tested 3 (μM),1 µg/mL
same,Erythromycin MIC,[4]; compound Conc. Tested 3 (μM),2 µg/mL
same,Vancomycin MIC,[4]; compound Conc. Tested 3 (μM),32 µg/mL
same,Azithromycin MIC,[4]; compound Conc. Tested 4 (μM),4 µg/mL
same,Clarithromycin MIC,[4]; compound Conc. Tested 4 (μM),1 µg/mL
same,Erythromycin MIC,[4]; compound Conc. Tested 4 (μM),2 µg/mL
same,Vancomycin MIC,[4]; compound Conc. Tested 4 (μM),32 µg/mL
same,Azithromycin MIC,[4]; compound Conc. Tested 5 (μM),4 µg/mL
same,Clarithromycin MIC,[4]; compound Conc. Tested 5 (μM),0.5 µg/mL
same,Erythromycin MIC,[4]; compound Conc. Tested 5 (μM),2 µg/mL
same,Vancomycin MIC,[4]; compound Conc. Tested 5 (μM),32 µg/mL
same,Disrupted bacterial membrane (%),AB 5075; compound at 10 μM,44%
same,Disrupted bacterial membrane (%),AB 5075; compound at 20 μM,83% and 83.2%
same,Disrupted bacterial membrane (%),AB 5075; compound at 30 μM,87.4%
